# Assay results reported in BindingDB's records for doi:10.1016/j.bmcl.2012.10.009 (Abbott Laboratories, 2012).
# pEC50: −log10 of the molar value.
# Experiment: Inhibition of PLK1 in human MIAPaCa2 cells after 48 hrs by MTT assay
row,Compound,pEC50
1,CC(C)(C)Nc1c(Nc2ccnc(Nc3ccc(-c4ccncc4)cc3)n2)c(=O)c1=O,5.98
2,CC(C)(C)Nc1c(Nc2ccnc(Nc3ccc4c(c3)Cc3ccccc3-4)n2)c(=O)c1=O,< 4.52
3,CC(C)(C)Nc1c(Nc2ccnc(Nc3ccc(-c4ccccc4)cc3)n2)c(=O)c1=O,< 4.52
4,CC(C)(C)Nc1c(Nc2ccnc(Nc3ccc(N4CCOCC4)cc3)n2)c(=O)c1=O,5.05
5,CC(C)(C)Nc1c(Nc2ccnc(Nc3ccc(-c4csnn4)cc3)n2)c(=O)c1=O,5.08
6,CC(C)(C)Nc1c(Nc2ccnc(Nc3ccc(-c4ccccn4)cc3)n2)c(=O)c1=O,5.08
7,CC(C)(C)Nc1c(Nc2ccnc(Nc3ccc4c(c3)[nH]c3ccccc34)n2)c(=O)c1=O,5.30
8,CC(C)(C)Nc1c(Nc2ccnc(Nc3ccc(-c4cccnc4)cc3)n2)c(=O)c1=O,5.59
9,CC(C)(C)Nc1c(Nc2ccnc(Nc3ccc(-c4cn[nH]c4)cc3)n2)c(=O)c1=O,5.79

# Now from value to compound:
row,pEC50,Compound
1,5.54,CC(C)(C)Nc1c(Nc2ccnc(Nc3ccc4c(c3)CCO4)n2)c(=O)c1=O
2,5.54,CC(C)(C)Nc1c(Nc2ccnc(Nc3ccc4ncsc4c3)n2)c(=O)c1=O
3,5.83,CC(=O)N1CCc2cc(Nc3nccc(Nc4c(NC(C)(C)C)c(=O)c4=O)n3)ccc21
4,5.83,CC(C)(C)Nc1c(Nc2ccnc(Nc3ccc4[nH]ncc4c3)n2)c(=O)c1=O
